Molecules are shown by their SMILES.

Assay [1] concerns the target Collagenase. As to the kind of experiment: Enzyme inhibition assay with fluorogenic peptide substrate, collagenase. Type of assay: biochemical. The conditions noted are these: Ki (app) assumed to approximate true Ki. The protocol:
(§1) All enzyme assays to determine Ki values were performed using the peptide substrate Dnp-Pro-Leu-Gly-Leu-Trp-Ala-D-Arg-NH2. [M. Sharon Stock and Robert D. Gray, JBC 264, 4277-81, 1989]. The enzymes cleave at the Gly-Leu bond which can be followed fluorimetrically by measuring the increase in Trp fluorescence emission associated with the removal of the quenching dinitrophenol (Dnp) group.
(§2) Essentially, enzyme (e.g. gelatinase, stromelysin, collagenase) at 0.08-2 nM; a range of inhibitor concentrations (0.1-50×Ki) and substrate (approx. 20 μm) are incubated overnight in 0.1M Tris/HCI buffer, pH 7.5, containing 0.1M NaCl, 10 mM CaCl2 and 0.05%. Brij 35 at either room temperature or 37° C. depending on the enzyme. The reaction is stopped by adjusting the pH to 4 using 0.1M sodium acetate buffer and the fluorescence read at an excitation wavelength of 280 nm and emission wavelength of 346 nm.
(§3) Ki values can be established using the equation for tight-binding inhibition: [formula] where VO is the initial rate of reaction in the absence of inhibitor, Vi is the initial rate in the presence of inhibitor, [E] is the total enzyme concentration and [I] the total inhibitor concentration in the reaction mixture.
(§4) For stromelysin and collagenasa, Ki (app) was assumed to approximate to the true Ki as [S]<<Km for the substrate hydrolysis. For gelatinase the Ki was determined by performing the analyses at several substrate concentrations. A plot of Ki (app) vs. [S] then gave the true Ki as the value of the y-axis intercept.

Assay [2] has as its target Stromelysin-1 (Homo sapiens, UniProt P08254). As to the kind of experiment: Enzyme inhibition assay with fluorogenic peptide substrate, stromelysin-1. Format: biochemical. As to conditions: Ki (app) assumed to approximate true Ki. The method, then:
as §1, §2, §3, §4

Assay [3] has as its target T1, Gelatinase-72KD (Homo sapiens, UniProt P08253).
T1 sequence (P08253 110-660): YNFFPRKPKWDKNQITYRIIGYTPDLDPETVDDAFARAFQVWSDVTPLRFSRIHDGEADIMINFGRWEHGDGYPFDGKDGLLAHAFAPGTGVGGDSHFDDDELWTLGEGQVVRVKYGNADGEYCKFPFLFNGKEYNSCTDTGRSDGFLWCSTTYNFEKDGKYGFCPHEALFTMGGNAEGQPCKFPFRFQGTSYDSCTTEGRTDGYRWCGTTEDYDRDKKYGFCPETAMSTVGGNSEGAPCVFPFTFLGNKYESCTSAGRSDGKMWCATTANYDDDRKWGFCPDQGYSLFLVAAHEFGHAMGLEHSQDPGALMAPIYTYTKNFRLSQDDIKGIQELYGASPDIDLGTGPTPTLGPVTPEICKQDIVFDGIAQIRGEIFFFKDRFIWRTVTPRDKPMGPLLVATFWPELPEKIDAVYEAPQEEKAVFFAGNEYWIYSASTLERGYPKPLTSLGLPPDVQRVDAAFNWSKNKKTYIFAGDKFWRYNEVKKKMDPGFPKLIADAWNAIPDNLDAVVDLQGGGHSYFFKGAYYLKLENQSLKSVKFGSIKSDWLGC
As to the kind of experiment: Enzyme inhibition assay with fluorogenic peptide substrate, gelatinase-72KD. Format: biochemical. The conditions noted are these: true Ki from plot of Ki (app) vs. [S]. The method, then: as §1, §2, §3, §4

Assay [4] deals with T2, gelatinase A (72K form) (Homo sapiens, UniProt P08253).
T2 sequence (P08253 110-660): T1 sequence (P08253 110-660)
As to the kind of experiment: Mouse pleural cavity assay (oral activity). Format: in vivo. As to conditions: administered orally, around 25 μm/Kg. The protocol: The oral activity of the compounds according to the invention may be determined using the mouse pleural cavity assay described below. This assay measures the ability of compounds of the invention when adminstered orally to inhibit a subsequent inoculation of gelatinase into the mouse pleural cavity.
A 2 ml solution of the test compound (for example around 25 μm/Kg) in an appropriate solvent (e.g. 50% polyethylene glycol (PG)) plus a variable proportion of dimethyl sulphoxide (DMSO) (if required) is administered orally. After an interval of up to 24 hrs, 0.4 ml of a mixture of an equal volume (2.2 ml) of the enzyme gelatinase A (72K form at a concentration of 20 nM) and radiolabelled [^14 C]-gelatin (at an approximate concentration of 10 μM i.e. 500 times molar excess) is injected into the pleural cavity and maintained at […]. […] The resulting TCA precipitate is then separated by centrifugation and radioactivity in each supernatant measured by scintillation counting. Results are expressed as a % inhibition of enzyme activity calculated by comparing the radioactivity measured for each test compound with a control value obtained by performing the same assay in the absence of a gelatinase inhibitor. […]

Sequence of Stromelysin-1 (P08254 100-477, species assumed): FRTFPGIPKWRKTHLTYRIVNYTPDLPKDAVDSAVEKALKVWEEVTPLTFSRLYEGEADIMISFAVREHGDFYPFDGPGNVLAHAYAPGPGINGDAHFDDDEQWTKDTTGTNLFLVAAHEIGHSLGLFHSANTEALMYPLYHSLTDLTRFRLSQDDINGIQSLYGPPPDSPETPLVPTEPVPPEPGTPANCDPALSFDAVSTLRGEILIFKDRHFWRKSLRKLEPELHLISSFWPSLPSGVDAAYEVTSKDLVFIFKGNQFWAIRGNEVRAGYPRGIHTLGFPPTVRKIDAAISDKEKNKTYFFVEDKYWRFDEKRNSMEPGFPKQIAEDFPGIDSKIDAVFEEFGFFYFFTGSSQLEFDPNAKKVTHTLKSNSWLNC

Consider `CNC(=O)[C@H](NC(=O)[C@H](CCCc1ccc(Cl)cc1)CC(=O)NO)C(C)(C)S(C)(=O)=O` [Example 4, {4-(N-Hydroxyamino)-2(R)-[3-(4-chlorophenyl)propyl]succinyl}-L-[S-(methyl)penicillaminesulphone]-N-methylamide], for which the figures for the Ki in assay [1], in assay [2] and in assay [3] were 20.7 nM, 5.92 nM and 0.005 nM, respectively.

Consider `CNC(=O)[C@H](NC(=O)[C@H](CCCc1ccc(Cl)cc1)CC(=O)NO)C(C)(C)SC` [Example 3a), [4-(N-Hydroxyamino)-2(R)-[3-(4-chlorophenyl)propyl]succinyl]-L-[S-(methyl)penicillamine]-N-methylamide], for which the Ki in assay [1] amounted to 26.3 nM; in assay [2], 5.3 nM; in assay [3] it was 0.005 nM.

Turning to `CC(C)(S)[C@@H](NC(=O)[C@H](CCCc1ccc(Cl)cc1)CC(=O)NO)C(N)=O` [Example 3b), [4-(N-Hydroxyamino)-2(R)-[3-(4-chlorophenyl)propyl]-1-succinyl]-L-penicillamine amide], the Ki in assay [1] worked out at 122 nM; in assay [2] it was 3.6 nM; in assay [3], 0.027 nM. Moreover, the “% inhibition of enzyme activity” value in assay [4] was determined as 100%.

The values above are taken from patent publication US5714491A, “Peptidyl derivatives as metalloproteinase inhibitors” (Celltech Therapeutics Limited, priority 1993, dated 1998).
